Laboratory results reported in ChEMBL document CHEMBL4190257, “Discovery of phenylsulfonyl acetic acid derivatives with improved efficacy and safety as potent free fatty acid receptor 1 agonists for the treatment of type 2 diabetes” (Eur J Med Chem, 2017).
Activity calls are given as the source filed them. No cut-off for these calls is given here.

Assays:
[1] = molecular target: T1, Free fatty acid receptor 1 (Homo sapiens, UniProt O14842); assay: Agonist activity at human FFA1 receptor expressed in CHO cells assessed as increase in intracellular calcium flux by Fluo 4AM dye-based FLIPR assay; type: functional, cell-based
T1 sequence (O14842 whole entry): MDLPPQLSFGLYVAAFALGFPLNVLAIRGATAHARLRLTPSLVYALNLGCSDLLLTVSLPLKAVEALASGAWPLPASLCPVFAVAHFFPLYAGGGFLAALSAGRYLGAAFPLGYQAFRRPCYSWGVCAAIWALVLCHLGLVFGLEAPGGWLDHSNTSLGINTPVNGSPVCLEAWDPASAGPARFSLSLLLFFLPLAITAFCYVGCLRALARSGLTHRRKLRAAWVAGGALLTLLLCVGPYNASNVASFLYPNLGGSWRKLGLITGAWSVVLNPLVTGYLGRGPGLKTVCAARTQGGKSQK

[2] = molecular target: T1, Free fatty acid receptor 1; assay: Agonist activity at human FFA1 receptor expressed in CHO cells assessed as increase in intracellular calcium flux at 10 uM by Fluo 4AM dye-based FLIPR assay relative to TAK-875; type: functional, cell-based
[3] = Octanol/phosphate buffer distribution coefficient, log D of the compound at 100 uM at pH 7.4 after 24 hrs by shake flask method; type: physicochemical
[4] = test system: HepG2; assay: Apoptotic cytotoxicity in human HepG2 cells assessed as caspase-3/7 activity at 30 uM after 24 hrs by caspase-glo-3/7 assay relative to staurosporine; type: cell-based; details: hepg2, 24 h
[5] = Clearance in fasted Sprague-Dawley rat at 10 mg/kg, po administered as single dose measured up to 24 hrs post dose by LC-PDA-MS/MS analysis; type: ADME, organism-based; details: in vivo
[6] = Cmax in fasted Sprague-Dawley rat at 10 mg/kg, po administered as single dose measured up to 24 hrs post dose by LC-PDA-MS/MS analysis; type: ADME, organism-based; set-up: dose 10 mg/kg, route oral; details: in vivo
[7] = AUC (0 to 24 hrs) in fasted Sprague-Dawley rat at 10 mg/kg, po administered as single dose measured up to 24 hrs post dose by LC-PDA-MS/MS analysis; type: ADME, organism-based; set-up: time < 24 hr, dose 10 mg/kg, route oral; details: in vivo
[8] = Half life in fasted Sprague-Dawley rat at 10 mg/kg, po administered as single dose measured up to 24 hrs post dose by LC-PDA-MS/MS analysis; type: ADME, organism-based; details: in vivo
[9] = Drug metabolism in Sprague-Dawley rat plasma assessed as beta-oxidation metabolite formation at 10 mg/kg, po measured up to 24 hrs post dose by LC-PDA-MS/MS analysis; type: ADME, organism-based; details: in vivo
[10] = Drug metabolism in Sprague-Dawley rat plasma assessed as cytochrome P450-mediated 2'-chlorobiphenyl-3-carboxylic acid formation at 10 mg/kg, po measured up to 24 hrs post dose by LC-PDA-MS/MS analysis; type: ADME, organism-based; details: in vivo
[11] = Drug metabolism in Sprague-Dawley rat plasma assessed as 2-(2-(4-((2'-chlorobiphenyl-3-yl)methoxy)phenylsulfonyl)acetamido)ethanesulfonic acid formation at 10 mg/kg, po measured up to 24 hrs post dose by LC-PDA-MS/MS analysis; type: ADME, organism-based; details: in vivo
[12] = Drug metabolism in Sprague-Dawley rat plasma assessed as (2S,3R,4S,5S,6R)-3,4,5-trihydroxy-6-(hydroxymethyl)tetrahydro-2H-pyran-2-yl 2-(4-((2'-chlorobiphenyl-3-yl)methoxy)phenylsulfonyl)acetate formation at 10 mg/kg, po measured up to 24 hrs post dose by LC-PDA-MS/MS analysis; type: ADME, organism-based; details: in vivo
[13] = test system: Rattus norvegicus; assay: Antidiabetic activity in po dosed Sprague-Dawley rat assessed as reduction in plasma glucose excursion administered as single dose followed by subsequent glucose challenge at 60 mins post administration measured up to 120 mins post dose by OGTT method; type: functional, organism-based
[14] = test system: Rattus norvegicus; assay: Antidiabetic activity in po dosed Sprague-Dawley rat assessed as increase in insulin secretion administered as single dose followed by subsequent glucose challenge at 60 mins post administration measured up to 120 mins post dose by ELISA; type: functional, organism-based
[15] = test system: Rattus norvegicus; assay: Antidiabetic activity in po dosed Sprague-Dawley rat assessed as reduction in blood glucose AUC (0 to 120 mins) administered as single dose followed by subsequent glucose challenge at 60 mins post administration by OGTT method; type: functional
[16] = test system: Rattus norvegicus; assay: Antidiabetic activity in po dosed Sprague-Dawley rat assessed as increase in blood insulin AUC (0 to 120 mins) administered as single dose followed by subsequent glucose challenge at 60 mins post administration by ELISA method; type: functional
[17] = test system: Mus musculus; assay: Antihyperglycemic activity in high fat diet fed/streptozotocin-induced type 2 diabetic C57BL/6 mouse model assessed as reduction in plasma glucose AUC (0 to 120 mins) at 20 mg/kg, po administered as single dose followed by subsequent glucose challenge at 60 mins post administration by OGTT method; type: functional, organism-based
[18] = test system: Rattus norvegicus; assay: Hypoglycemic effect in fasting Sprague-Dawley rat at 30 mg/kg, po measured up to 180 mins post dose; type: ADME, organism-based; details: in vivo, 3 h
[19] = test system: Mus musculus; assay: Hepatotoxicity in ICR mouse assessed as serum ALT level at 30 mg/kg, dosed daily via oral gavage for 30 days (reference value: 34.7 +/- 5.6 IU/L); type: toxicity, organism-based; details: in vivo, 720 h
[20] = test system: Mus musculus; assay: Hepatotoxicity in ICR mouse assessed as serum AST level at 30 mg/kg, dosed daily via oral gavage for 30 days (reference value: 135.6 +/- 15.2 IU/L); type: toxicity, organism-based; details: in vivo, 720 h
[21] = test system: Mus musculus; assay: Hepatotoxicity in ICR mouse assessed as serum TBIL level at 30 mg/kg, dosed daily via oral gavage for 30 days (reference value: 4.3 +/- 1.3 IU/L); type: toxicity, organism-based; details: in vivo, 720 h
[22] = test system: Mus musculus; assay: Renal toxicity in ICR mouse assessed as BUN level at 30 mg/kg, dosed daily via oral gavage for 30 days (reference value: 7.4 +/- 1.6 mmol/L); type: organism-based; details: in vivo, 720 h
[23] = test system: Mus musculus; assay: Renal toxicity in ICR mouse assessed as serum creatinine level at 30 mg/kg, dosed daily via oral gavage for 30 days (reference value: 40.9 +/- 2.6 umol/L); type: organism-based; details: in vivo, 720 h

Q: What does the source list for `O=C(O)CS(=O)(=O)c1ccc(OCc2cccc(-c3ccccc3Cl)c2)cc1`?
A: EC50 [1]: 28.8 nM; Efficacy [2]: 115%; logD at 24 h, 100 µM [3]: 2.47; Activity [4]: -1.6%; CL/F [5]: 2.57 mL/min/kg; Cmax [6]: 2560 ng/mL; AUC(0-t) at 24 h [7]: 30200 ng·h/mL; half-life [8]: 5.57 h; Drug metabolism [9]: Metabolite_Detected; Drug metabolism [10]: Metabolite_Detected; Drug metabolism [11]: Metabolite_Detected; Drug metabolism [12]: Metabolite_Detected; Activity [13]: Dose-dependent effect; Activity [14]: Dose-dependent effect; MEC [15]: 3 mg/kg; MEC [16]: 3 mg/kg; Activity [17]: Active; Activity [18]: Non-Toxic; Activity [19]: 35.4 IU/L; Activity [20]: 128.2 IU/L; Activity [21]: 4.1 IU/L; Activity [22]: 7.9 mmol/L; Activity [23]: 41.4 µmol/L
